Test results as given in patent US20150289512A1, “METHOD FOR PROMOTING PLANT GROWTH” (SUMITOMO CHEMICAL COMPANY, LIMITED, priority 2012, published 2015).

How the values were obtained:
Type in all cases: in vivo
[1] = system: Nicotiana benthamiana; test: Test Example 5: growth promotion under low-temperature stress by hydroponics of Nicotiana benthamiana, 1 ppm; conditions: 1 ppm in medium, low-temperature stress 7 days at 1.5±1.0° C., green leaf area 3 days later, equation (1)
Procedure: (§1) Test for Evaluating Growth Promotion Under Low-Temperature Stress by Hydroponics of Nicotiana benthamiana
A DMSO solution, which contained one of the compounds 2, 4, 5, 6, 11, 12, 17, 20, 21, 28, 30, 34, 36, 37, 51, 52, 53, 55, 56, 58, 59, 60, 64, 65, 66, 68, 69, 70, 74, 77, 82, 83, 84, 86 and 87 of the present invention at a concentration of 1,000 ppm, was prepared. The DMSO solution of the compound of the present invention was added at a volume ratio of 1/1,000 to the Murashige•Scoog medium of a ½-fold concentration (a medium containing 2.3 g of mixed salts for the Murashige•Scoog medium (manufactured by Wako Pure Chemical Industries, Ltd.), 200 mg of Myo-inositol (manufactured by Sigma-Aldrich Co. LLC.), 2 mg of nicotinic acid (manufactured by Wako Pure Chemical Industries, Ltd.), 2 mg of pyridoxine hydrochloride (manufactured by Wako Pure Chemical Industries, Ltd.), 20 mg of thiamine hydrochloride (manufactured by Wako Pure Chemical Industries, Ltd.), 20 g of sucrose (manufactured by Wako Pure Chemical Industries, Ltd.), and 1 g of MES (manufactured by DOJINDO LABORATORIES) per 1 L of water and having pH adjusted to 5.8), thereby preparing a medium containing the compound of the present invention at a concentration of 1 ppm.
(§2) Seeds of Nicotiana benthamiana were seeded in the 5 μL of the medium and cultured overnight at 22° C. Thereafter, 45 μL of the medium containing the compound of the present invention at a concentration of 1 ppm was added thereto, and the seeds are cultured for 7 days at 22° C., an illuminance of 4,000 lux, and a day length of 16 hours, and the nursery plants raised from the Nicotiana benthamiana were treated with the compound. Moreover, instead of the above medium, a test plot, which was obtained by performing the same treatment by using a medium prepared by adding DMSO to the Murashige•Scoog medium of ½-fold concentration at a volume ratio of 1/1,000, was used as a control plot not treated with the compound.
(§3) The nursery plants of the Nicotiana benthamiana treated with the compound were subjected to low-temperature treatment by being cultivated for 7 days at 1.5±1.0° C., an illuminance of 2,000 lux, and a day length of 16 hours.
The nursery plants of the Nicotiana benthamiana having undergone the low-temperature stress treatment were cultured for 3 days at 22° C., an illuminance of 4,000 lux, and a day length of 16 hours. Thereafter, the area of green leaf was quantified by Scanalyzer HTS (manufactured by LemnaTec GmbH). Moreover, the value of the control plot not treated with the compound that had not yet been subjected to the low-temperature stress treatment was measured in the same manner. A value of a relative leaf area was calculated based on the following equation (1), and if the value of a relative leaf area was 5 or greater, the compound was evaluated to have a mitigating effect. As a result of the evaluation, it was confirmed that when the plant was treated with one of the compounds 2, 4, 5, 6, 11, 12, 17, 20, 21, 28, 30, 34, 36, 37, 51, 52, 53, 55, 56, 58, 59, 60, 64, 65, 66, 68, 69, 70, 74, 77, 82, 83, 84, 86 and 87 of the present invention at 1 ppm, the value of a relative leaf area was 5 or greater, compared to the area of green leaf of the control plot not treated with compound. Accordingly, it was confirmed that the treatment using the compound of the present invention brings about a growth promotion effect.
(§4) Relative leaf area=100*(a green area of a plot treated with the compound of the present invention−a green area of a control plot not treated with the compound of the present invention)/(a green area of a control plot not treated with the compound of the present invention that has not yet been subjected to low-temperature stress treatment−a green area of a control plot not treated with the compound of the present invention) Equation (1): […]

[2] = system: Rice (variety: Nipponbare); test: Test Example 1: promotion of root growth by hydroponics of rice, 10 ppm; conditions: Oryza sativa, hydroponic solution containing the test compound at 10 ppm, average of 4 or 5 individuals, read-out: Relative value of length of seminal root (%-untreated control plot)
Procedure: (§5) Test for Evaluating Promotion of Root Growth by Hydroponics of Rice
(§6) Rice (variety: Nipponbare)
(§7) Rice seeds were soaked in a 1% aqueous sodium hypochlorite solution for 10 minutes, then soaked in a 70% ethanol solution for surface sterilization, and then washed with distilled water. The sterilized seeds were soaked in a hydroponic solution containing the test compound described above at 10 ppm and incubated in a dark place for 3 days at 28° C. to perform treatment for hastening germination.
(§8) Thereafter, 30 ml of hydroponic solution containing the test compound at 10 ppm was dispensed in a plastic tube (diameter of 20 mm×height of 113 mm) of which the side was covered with cardboard to block light. A float prepared using a styrene board and vinyl mesh was floated, and the rice seeds that had undergone the treatment for hastening germination were placed on the float on the surface of the hydroponic solution. The seeds were cultivated for 3 days at 26° C., an illuminance of 4,000 lux of the top surface of the tube, a humidity of 50%, and a day length of 16 hours.
(§9) The nursery plants of rice obtained after culturing were measured in terms of the length of seminal root by using WinRHIZO system (manufactured by Regent Instruments Inc). For each test plot, an average of the measured values of the seminal root of 4 or 5 individuals was determined.

[3] = system: Rice (variety: Nipponbare); test: Test Example 3: promotion of root growth by hydroponics of rice, 0.1 ppm; conditions: Oryza sativa, hydroponic solution containing the test compound at 0.1 ppm, average of 4 or 5 individuals, read-out: Relative value of length of seminal root (%-untreated control plot)
Procedure: as §5, §6
A DMSO solution, which contained one of the compounds 2, 6, 7, 16, 20, 33, 34, 36, 37, 38, 40, 41, 43, 44, 45, 46, 47, 48, 50, 51, 52, 53, 54, 55, 56, 61, 64, 67, 68, 71, 72, 73, 74, 75, 76, 79, 80, 81 and 83 of the present invention at a concentration of 1,000 ppm, was added to Hoagland hydroponic solution (Hoagland and Arnon, California Agricultural Experiment Station 1950 Circular 347 pp. 34) of ¼-fold concentration at a volume ratio of 1/10,000. In this manner, hydroponic solutions containing one of the compounds 2, 6, 7, 16, 20, 33, 34, 36, 37, 38, 40, 41, 43, 44, 45, 46, 47, 48, 50, 51, 52, 53, 54, 55, 56, 61, 64, 67, 68, 71, 72, 73, 74, 75, 76, 79, 80, 81 and 83 of the present invention at 0.1 ppm were prepared respectively. As an untreated control plot, a hydroponic solution obtained by adding DMSO to Hoagland hydroponic solution of ¼-fold concentration at a volume ratio of 1/10,000 was used.
as §7, with “at 0.1” for “at 10”
as §8, with “0.1” for “10”
as §9

[4] = system: Nicotiana benthamiana; test: Test Example 6: growth promotion under low-temperature stress by hydroponics of Nicotiana benthamiana, 0.1 ppm; conditions: 0.1 ppm in medium, low-temperature stress 7 days at 1.5±1.0° C., green leaf area 3 days later, equation (1)
Procedure: as §1
A DMSO solution, which contained one of the compounds 3, 7, 14, 16, 36, 39, 43, 45, 50, 52, 53, 54, 56, 57, 62, 63, 64, 65, 68, 69, 70, 71, 73, 74, 76, 77, 79, 80, 81, 84, 85, 86 and 87 of the present invention at a concentration of 100 ppm, was prepared. The DMSO solution of the compound of the present invention was added at a volume ratio of 1/1,000 to the Murashige•Scoog medium of a ½-fold concentration for the Murashige•Scoog medium (a medium containing 2.3 g of mixed salts (manufactured by Wako Pure Chemical Industries, Ltd.), 200 mg of Myo-inositol (manufactured by Sigma-Aldrich Co. LLC.), 2 mg of nicotinic acid (manufactured by Wako Pure Chemical Industries, Ltd.), 2 mg of pyridoxine hydrochloride (manufactured by Wako Pure Chemical Industries, Ltd.), 20 mg of thiamine hydrochloride (manufactured by Wako Pure Chemical Industries, Ltd.), 20 g of sucrose (manufactured by Wako Pure Chemical Industries, Ltd.), and 1 g of MES (manufactured by DOJINDO LABORATORIES) per 1 L of water and having pH adjusted to 5.8), thereby preparing a medium containing the compound of the present invention at a concentration of 0.1 ppm.
as §2, with “concentration of 0.1 ppm was” for “concentration of 1 ppm was”, “seeds are cultivated for 7” for “seeds are cultured for 7”, “the above medium a test” for “the above medium, a test”
as §3
The nursery plants of the Nicotiana benthamiana having undergone the low-temperature stress treatment were cultivated for 3 days at 22° C., an illuminance of 4,000 lux, and a day length of 16 hours. Thereafter, the area of green leaf was quantified by Scanalyzer HTS (manufactured by LemnaTec GmbH). Moreover, the value of the control plot not treated with the compound that had not yet been subjected to the low-temperature stress treatment was measured in the same manner. A value of a relative leaf area was calculated based on the following equation (1), and if the value of a relative leaf area was 5 or greater, the compound was evaluated to have a mitigating effect. As a result of the evaluation, it was confirmed that when the plant was treated with one of the compounds 3, 7, 14, 16, 36, 39, 43, 45, 50, 52, 53, 54, 56, 57, 62, 63, 64, 65, 68, 69, 70, 71, 73, 74, 76, 77, 79, 80, 81, 84, 85, 86 and 87 of the present invention at 0.1 ppm, the value of a relative leaf area was 5 or greater, compared to the area of green leaf of the control plot not treated with compound. Accordingly, it was confirmed that the treatment using the compound of the present invention brings about a growth promotion effect.
as §4, with “treatment−green” for “treatment−a green”

SMILES | relative leaf area (% of untreated control) at 1 ppm [1] | change in vivo at 10 ppm [2] | change in vivo at 0.1 ppm [3] | relative leaf area (% of untreated control) at 0.1 ppm [4]
COC(=O)c1oc2ccc(C(F)(F)F)cc2c1NC(=O)c1ccccc1 [Compound 66] | ≥ 5% | – | – | –
COC(=O)c1oc2ccccc2c1NC=O [Compound 81] | – | > 5% | > 5% | ≥ 5%
COC(=O)c1oc2ccccc2c1N [Compound 57] | – | > 5% | – | ≥ 5%
COC(=O)c1oc2ccccc2c1NC(=O)c1ccccc1 [Compound 59] | ≥ 5% | – | – | –
